Source: ChEMBL document CHEMBL1955827, “Influence of ring size on the cognition-enhancing activity of DM235 and MN19, two potent nootropic drugs” (Bioorg Med Chem Lett, 2012)
Calls of active or inactive are those of the source. The calls are words filed in the database; no cut-off is given here.

What was measured:
Mus musculus [1] = assay: Nootropic activity against scopolamine-induced amnesia in mouse assessed as increase in latency time to enter dark room at 10 mg/kg, ip administered 20 mins prior to test by passive avoidance test (reference value: 91.7 sec); type: functional; settings: route intraperitoneal
Mus musculus [2] = assay: Neurotoxicity in mouse assessed as effect on spontaneous motility at 10 mg/kg, ip by hole-board test; type: toxicity, organism-based; parameters: dose 10 mg/kg, route intraperitoneal; settings: in vivo
Mus musculus [3] = assay: Neurotoxicity in mouse assessed as effect on gross behaviour at 10 mg/kg, ip by rotarod test; type: toxicity, organism-based; parameters: dose 10 mg/kg, route intraperitoneal; settings: in vivo
Mus musculus [4] = assay: Neurotoxicity in mouse assessed as effect on motor coordination at 10 mg/kg, ip by rotarod test; type: toxicity, organism-based; parameters: dose 10 mg/kg, route intraperitoneal; settings: in vivo
Mus musculus [5] = assay: Neurotoxicity in mouse assessed as effect on inspection activity at 10 mg/kg, ip by hole-board test; type: toxicity, organism-based; parameters: dose 10 mg/kg, route intraperitoneal; settings: in vivo
Mus musculus [6] = assay: Neurotoxicity in mouse assessed as effect on inspection activity at 1 mg/kg, ip by hole-board test; type: toxicity, organism-based; parameters: dose 1 mg/kg, route intraperitoneal; settings: in vivo
Mus musculus [7] = assay: Neurotoxicity in mouse assessed as effect on spontaneous motility at 1 mg/kg, ip by hole-board test; type: toxicity, organism-based; parameters: dose 1 mg/kg, route intraperitoneal; settings: in vivo
Mus musculus [8] = assay: Nootropic activity against scopolamine-induced amnesia in mouse assessed as increase in latency time to enter dark room at 1 mg/kg, ip administered 20 mins prior to test by passive avoidance test (reference value: 91.7 sec); type: functional; settings: route intraperitoneal
Mus musculus [9] = assay: Neurotoxicity in mouse assessed as effect on gross behavior at 1 mg/kg, ip by rota-rod test; type: toxicity, organism-based; parameters: dose 1 mg/kg, route intraperitoneal; settings: in vivo
Mus musculus [10] = assay: Neurotoxicity in mouse assessed as effect on motor coordination at 1 mg/kg, ip by rotarod test; type: toxicity, organism-based; parameters: dose 1 mg/kg, route intraperitoneal; settings: in vivo
Mus musculus [11] = assay: Neurotoxicity in mouse assessed as effect on spontaneous motility at 0.001 mg/kg, ip by hole-board test; type: toxicity, organism-based; parameters: dose 0.001 mg/kg, route intraperitoneal; settings: in vivo
Mus musculus [12] = assay: Neurotoxicity in mouse assessed as effect on motor coordination at 0.001 mg/kg, ip by rotarod test; type: toxicity, organism-based; parameters: dose 0.001 mg/kg, route intraperitoneal; settings: in vivo
Mus musculus [13] = assay: Neurotoxicity in mouse assessed as effect on gross behaviour at 0.001 mg/kg, ip by rotarod test; type: toxicity, organism-based; parameters: dose 0.001 mg/kg, route intraperitoneal; settings: in vivo
Mus musculus [14] = assay: Nootropic activity against scopolamine-induced amnesia in mouse assessed as increase in latency time to enter dark room at 0.001 mg/kg, ip administered 20 mins prior to test by passive avoidance test (reference value: 91.7 sec); type: functional; settings: route intraperitoneal
Mus musculus [15] = assay: Neurotoxicity in mouse assessed as effect on inspection activity at 0.001 mg/kg, ip by hole-board test; type: toxicity, organism-based; parameters: dose 0.001 mg/kg, route intraperitoneal; settings: in vivo
Mus musculus [16] = assay: Nootropic activity against scopolamine-induced amnesia in mouse assessed as increase in latency period to enter dark room up to 10 mg/kg, ip administered 20 mins prior to test by passive avoidance test (reference value: 91.7 sec); type: functional, organism-based; parameters: dose 10 mg/kg
Mus musculus [17] = assay: Neurotoxicity in mouse assessed as effect on inspection activity at 0.01 mg/kg, ip by hole-board test; type: toxicity, organism-based; parameters: dose 0.01 mg/kg, route intraperitoneal; settings: in vivo
Mus musculus [18] = assay: Neurotoxicity in mouse assessed as effect on gross behavior at 0.01 mg/kg, ip by rota-rod test; type: toxicity, organism-based; parameters: dose 0.01 mg/kg, route intraperitoneal; settings: in vivo
Mus musculus [19] = assay: Neurotoxicity in mouse assessed as effect on spontaneous motility at 0.01 mg/kg, ip by hole-board test; type: toxicity, organism-based; parameters: dose 0.01 mg/kg, route intraperitoneal; settings: in vivo
Mus musculus [20] = assay: Nootropic activity against scopolamine-induced amnesia in mouse assessed as increase in latency time to enter dark room at 0.01 mg/kg, ip administered 20 mins prior to test by passive avoidance test (reference value: 91.7 sec); type: functional; settings: route intraperitoneal
Mus musculus [21] = assay: Neurotoxicity in mouse assessed as effect on motor coordination at 0.01 mg/kg, ip by rotarod test; type: toxicity, organism-based; parameters: dose 0.01 mg/kg, route intraperitoneal; settings: in vivo
Mus musculus [22] = assay: Neurotoxicity in mouse assessed as effect on inspection activity at 0.1 mg/kg, ip by hole-board test; type: toxicity, organism-based; parameters: dose 0.1 mg/kg, route intraperitoneal; settings: in vivo
Mus musculus [23] = assay: Neurotoxicity in mouse assessed as effect on spontaneous motility at 0.1 mg/kg, ip by hole-board test; type: toxicity, organism-based; parameters: dose 0.1 mg/kg, route intraperitoneal; settings: in vivo
Mus musculus [24] = assay: Neurotoxicity in mouse assessed as effect on motor coordination at 0.1 mg/kg, ip by rotarod test; type: toxicity, organism-based; parameters: dose 0.1 mg/kg, route intraperitoneal; settings: in vivo
Mus musculus [25] = assay: Neurotoxicity in mouse assessed as effect on gross behavior at 0.1 mg/kg, ip by rota-rod test; type: toxicity, organism-based; parameters: dose 0.1 mg/kg, route intraperitoneal; settings: in vivo
Mus musculus [26] = assay: Nootropic activity against scopolamine-induced amnesia in mouse assessed as increase in latency time to enter dark room at 0.1 mg/kg, ip administered 20 mins prior to test by passive avoidance test (reference value: 91.7 sec); type: functional; settings: route intraperitoneal
Mus musculus [27] = assay: Neurotoxicity in mouse assessed as effect on inspection activity at 30 mg/kg, ip by hole-board test; type: toxicity, organism-based; parameters: dose 30 mg/kg, route intraperitoneal; settings: in vivo
Mus musculus [28] = assay: Neurotoxicity in mouse assessed as effect on spontaneous motility at 30 mg/kg, ip by hole-board test; type: toxicity, organism-based; parameters: dose 30 mg/kg, route intraperitoneal; settings: in vivo
Mus musculus [29] = assay: Neurotoxicity in mouse assessed as effect on motor coordination at 30 mg/kg, ip by rotarod test; type: toxicity, organism-based; parameters: dose 30 mg/kg, route intraperitoneal; settings: in vivo
Mus musculus [30] = assay: Neurotoxicity in mouse assessed as effect on gross behavior at 30 mg/kg, ip by rota-rod test; type: toxicity, organism-based; parameters: dose 30 mg/kg, route intraperitoneal; settings: in vivo

## CCC(=O)N1CCCC(NS(=O)(=O)c2ccc(F)cc2)CC1 (stereo not drawn)
Mus musculus [1]
  Time: 81.4 s

## CC(=O)NC1CCN(C(=O)c2ccccc2)C1 (stereo not drawn)
Mus musculus [2]
  Activity: Non-toxic
Mus musculus [1]
  Time: 70.3 s
Mus musculus [3]
  Activity: Non-toxic
Mus musculus [4]
  Activity: Non-toxic
Mus musculus [5]
  Activity: Non-toxic

## CCC(=O)NC1CCN(C(=O)c2ccccc2)C1 (stereo not drawn)
Mus musculus [6]
  Activity: Non-toxic
Mus musculus [7]
  Activity: Non-toxic
Mus musculus [8]
  Time: 45.4 s
Mus musculus [9]
  Activity: Non-toxic
Mus musculus [10]
  Activity: Non-toxic

## CC(=O)NC1CCN(S(=O)(=O)c2ccc(F)cc2)C1 (stereo not drawn)
Mus musculus [6]
  Activity: Non-toxic
Mus musculus [7]
  Activity: Non-toxic
Mus musculus [8]
  Time: 51 s
Mus musculus [9]
  Activity: Non-toxic
Mus musculus [10]
  Activity: Non-toxic

## CCC(=O)N[C@H]1CCN(S(=O)(=O)c2ccc(F)cc2)C1
Mus musculus [6]
  Activity: Non-toxic
Mus musculus [7]
  Activity: Non-toxic
Mus musculus [8]
  Time: 56.6 s
Mus musculus [9]
  Activity: Non-toxic
Mus musculus [10]
  Activity: Non-toxic

## CCC(=O)N1CCN(C(=O)c2ccccc2)CC1 [SUNIFIRAM]
Mus musculus [11]
  Activity: Non-toxic
Mus musculus [12]
  Activity: Non-toxic
Mus musculus [13]
  Activity: Non-toxic
Mus musculus [14]
  Time: 71 s
Mus musculus [15]
  Activity: Non-toxic

## CCC(=O)NC1CCCN(S(=O)(=O)c2ccc(F)cc2)CC1 (stereo not drawn)
Mus musculus [2]
  Activity: Non-toxic
Mus musculus [1]
  Time: 46.8 s
Mus musculus [3]
  Activity: Non-toxic
Mus musculus [4]
  Activity: Non-toxic
Mus musculus [5]
  Activity: Non-toxic

## CCC(=O)N1CCCN(S(=O)(=O)c2ccc(F)cc2)CCC1
Mus musculus [16]
  Activity: inactive

## CC(=O)N1CCCC(NS(=O)(=O)c2ccc(F)cc2)CC1 (stereo not drawn)
Mus musculus [6]
  Activity: Non-toxic
Mus musculus [7]
  Activity: Non-toxic
Mus musculus [8]
  Time: 45.8 s
Mus musculus [9]
  Activity: Non-toxic
Mus musculus [10]
  Activity: Non-toxic

## CCC(=O)NC1CN(C(=O)c2ccccc2)C1
Mus musculus [16]
  Activity: inactive

## CC(=O)NC1CCCN(C(=O)c2ccccc2)CC1 (stereo not drawn)
Mus musculus [16]
  Activity: inactive

## CC(=O)NC1CCN(S(=O)(=O)c2ccc(F)cc2)CC1 [SAPUNIFIRAM]
Mus musculus [17]
  Activity: Non-toxic
Mus musculus [18]
  Activity: Non-toxic
Mus musculus [19]
  Activity: Non-toxic
Mus musculus [20]
  Time: 76.1 s
Mus musculus [21]
  Activity: Non-toxic

## CC(=O)N1CCCN(C(=O)c2ccccc2)CCC1
Mus musculus [16]
  Activity: inactive

## CC(=O)N1CCC(NC(=O)c2ccccc2)C1 (stereo not drawn)
Mus musculus [6]
  Activity: Non-toxic
Mus musculus [7]
  Activity: Non-toxic
Mus musculus [8]
  Time: 48.1 s
Mus musculus [9]
  Activity: Non-toxic
Mus musculus [10]
  Activity: Non-toxic

## CCC(=O)NC1CCCN(S(=O)(=O)c2ccc(F)cc2)CCC1
Mus musculus [2]
  Activity: Non-toxic
Mus musculus [1]
  Time: 72.2 s
Mus musculus [3]
  Activity: Non-toxic
Mus musculus [4]
  Activity: Non-toxic
Mus musculus [5]
  Activity: Non-toxic

## CCC(=O)NC1CCCN(C(=O)c2ccccc2)CC1 (stereo not drawn)
Mus musculus [6]
  Activity: Non-toxic
Mus musculus [7]
  Activity: Non-toxic
Mus musculus [8]
  Time: 62.7 s
Mus musculus [9]
  Activity: Non-toxic
Mus musculus [10]
  Activity: Non-toxic

## CC(=O)NC1CCCN(S(=O)(=O)c2ccc(F)cc2)CC1 (stereo not drawn)
Mus musculus [8]
  Time: 62.7 s
Mus musculus [16]
  Activity: inactive

## CC(=O)NC1CCCN(S(=O)(=O)c2ccc(F)cc2)CCC1
Mus musculus [6]
  Activity: Non-toxic
Mus musculus [7]
  Activity: Non-toxic
Mus musculus [8]
  Time: 44.8 s
Mus musculus [9]
  Activity: Non-toxic
Mus musculus [10]
  Activity: Non-toxic

## CCC(=O)N1CCC(NS(=O)(=O)c2ccc(F)cc2)C1 (stereo not drawn)
Mus musculus [16]
  Activity: inactive

## CCC(=O)N1CCC(NC(=O)c2ccccc2)C1 (stereo not drawn)
Mus musculus [16]
  Activity: inactive

## CCC(=O)N1CCCN(C(=O)c2ccccc2)CCC1
Mus musculus [16]
  Activity: inactive

## CCC(=O)N1CCCC(NC(=O)c2ccccc2)CC1 (stereo not drawn)
Mus musculus [6]
  Activity: Non-toxic
Mus musculus [7]
  Activity: Non-toxic
Mus musculus [8]
  Time: 69.4 s
Mus musculus [9]
  Activity: Non-toxic
Mus musculus [10]
  Activity: Non-toxic

## CC(=O)N1CCC(NS(=O)(=O)c2ccc(F)cc2)C1 (stereo not drawn)
Mus musculus [16]
  Activity: inactive

## CCC(=O)NC1CN(S(=O)(=O)c2ccc(F)cc2)C1
Mus musculus [2]
  Activity: Non-toxic
Mus musculus [1]
  Time: 44.1 s
Mus musculus [3]
  Activity: Non-toxic
Mus musculus [4]
  Activity: Non-toxic
Mus musculus [5]
  Activity: Non-toxic

## CCC(=O)NC1CCN(S(=O)(=O)c2ccc(F)cc2)C1 (stereo not drawn)
Mus musculus [22]
  Activity: Non-toxic
Mus musculus [23]
  Activity: Non-toxic
Mus musculus [24]
  Activity: Non-toxic
Mus musculus [25]
  Activity: Non-toxic
Mus musculus [26]
  Time: 48.8 s

## CC(=O)N1CCCC(NC(=O)c2ccccc2)CC1 (stereo not drawn)
Mus musculus [6]
  Activity: Non-toxic
Mus musculus [7]
  Activity: Non-toxic
Mus musculus [8]
  Time: 70.4 s
Mus musculus [9]
  Activity: Non-toxic
Mus musculus [10]
  Activity: Non-toxic

## CCC(=O)NC1CCCN(C(=O)c2ccccc2)CCC1
Mus musculus [16]
  Activity: inactive

## CC(=O)NC1CCCN(C(=O)c2ccccc2)CCC1
Mus musculus [16]
  Activity: inactive

## CC(=O)N1CCCN(S(=O)(=O)c2ccc(F)cc2)CCC1
Mus musculus [16]
  Activity: inactive

## NC(=O)CN1CCCC1=O [PIRACETAM]
Mus musculus [27]
  Activity: Non-toxic
Mus musculus [28]
  Activity: Non-toxic
Mus musculus [29]
  Activity: Non-toxic
Mus musculus [30]
  Activity: Non-toxic

## CCC(=O)N[C@@H]1CCN(S(=O)(=O)c2ccc(F)cc2)C1
Mus musculus [2]
  Activity: Non-toxic
Mus musculus [1]
  Time: 69.4 s
Mus musculus [3]
  Activity: Non-toxic
Mus musculus [4]
  Activity: Non-toxic
Mus musculus [5]
  Activity: Non-toxic
